Series [1] can be described thus: Human plasma protein binding (equilibrium dialysis). Format: in vitro ADME. Conditions: dialysis 18 hours. (In general: In equilibrium dialysis free small molecules cross a membrane that holds back macromolecules.)
Series [2] can be described thus: Human hepatocyte assay (metabolic stability). Conditions: cryopreserved pooled human hepatocytes (LiverPool 10 Donor), in vitro intrinsic clearance. Format: in vitro ADME.
Series [3] in a line: physchem. Conditions: 1-octanol/aqueous buffer, pH 7.4.
A short description of series [4]: Thermodynamic solubility (shake flask). To be noted: aqueous phosphate buffer, 25 °C, pH 7.4, aqueous buffer, thermodynamic from solid, aqueous phosphate buffer pH 7.4, 24 hours. Format: physicochemical.
For series [5], the target named is T1, Estrogen Receptor (ERα) in MCF-7 cells (Homo sapiens (Human), UniProt P03372). Kind of series: MCF-7 ER down-regulation assay (immuno-fluorescence). Format: cell-based. Conditions: 18-22 hours incubation.
Series [6] in a line: Human Caco-2 bidirectional permeability A to B and B to A. Format: in vitro ADME.
Series [7] deals with estrogen receptor (ERα) in CAMA-1 cells (Homo sapiens (Human), UniProt P03372). As to the kind of experiment: Western blotting assay, CAMA-1 cells. Format: cell-based. Conditions: compound 100 nM, 48 h, normalised to 100 nM fulvestrant (100%). On the technique in general: In western blotting, separated proteins are transferred to a membrane and probed.
For series [8], the target named is T1, Estrogen Receptor (ERα) in MCF-7 cells. As to the kind of experiment: Western blotting assay, MCF-7 cells. Format: cell-based. Conditions: compound 100 nM, 48 h, normalised to 100 nM fulvestrant (100%).
Series [9] in a line: Human Caco-2 passive permeability A to B Papp. To be noted: apical pH 6.5, basolateral pH 7.4, with efflux transporter inhibitor cocktail. Format: in vitro ADME. For orientation: Caco-2 cells form a polarised layer with tight junctions and transporters.

Converted amounts (≈) assume the structure as drawn.

T1 sequence (P03372 whole entry): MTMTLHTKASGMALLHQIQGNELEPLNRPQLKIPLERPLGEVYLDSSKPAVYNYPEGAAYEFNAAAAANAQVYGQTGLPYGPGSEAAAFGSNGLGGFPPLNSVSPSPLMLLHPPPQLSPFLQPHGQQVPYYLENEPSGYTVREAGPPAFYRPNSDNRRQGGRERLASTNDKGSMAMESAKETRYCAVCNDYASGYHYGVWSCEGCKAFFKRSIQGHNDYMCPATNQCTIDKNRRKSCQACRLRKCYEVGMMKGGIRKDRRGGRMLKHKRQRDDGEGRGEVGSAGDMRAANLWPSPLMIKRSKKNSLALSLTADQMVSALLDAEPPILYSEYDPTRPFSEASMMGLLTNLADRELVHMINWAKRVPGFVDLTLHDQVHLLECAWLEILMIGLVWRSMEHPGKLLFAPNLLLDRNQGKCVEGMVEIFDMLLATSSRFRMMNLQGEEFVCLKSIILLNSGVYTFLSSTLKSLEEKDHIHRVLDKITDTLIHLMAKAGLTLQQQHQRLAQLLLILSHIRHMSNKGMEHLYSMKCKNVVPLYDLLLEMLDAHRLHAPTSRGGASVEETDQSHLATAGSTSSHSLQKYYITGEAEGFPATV
estrogen receptor (ERα) in CAMA-1 cells, sequence (P03372 whole entry): as above

`CC(C)CN1[C@H](c2ccc(OCCNCCC(F)F)cc2)c2[nH]c3ccccc3c2C[C@H]1C` [Example 1, 3,3-difluoro-N-(2-(4-((1R,3R)-2-isobutyl-3-methyl-2,3,4,9-tetrahydro-1H-pyrido[3,4-b]indol-1-yl)phenoxy)ethyl)propan-1-amine]: the “Human plasma protein binding (% free)” value in series [1] is given as 1.4 % free. The hepatocyte CLint (as a rule, a measure of how fast metabolising enzymes remove a compound, apart from limits set by blood flow) at 1 µM in series [2] is less than 1 µL/min/1e6 cells. Moreover, in series [3], the logD (as a rule, the decadic logarithm of the distribution of all forms, ionised or not, between an organic phase and buffer at a given pH) amounted to 4.6. For the same compound, in series [4], the solubility (in general, the concentration that dissolves in the medium under given conditions) at 24 h was found to be 34 µM (≈ 15.5 µg/mL). In series [5], 0.94 nM corresponded to half-maximal inhibition (IC50).
Consider `COc1cc(OCCNCCCF)ncc1[C@@H]1c2[nH]c3ccccc3c2C[C@@H](C)N1CC(F)F` [Example 40, N-(2-((5-((1R,3R)-2-(2,2-difluoroethyl)-3-methyl-2,3,4,9-tetrahydro-1H-pyrido[3,4-b]indol-1-yl)-4-methoxypyridin-2-yl)oxy)ethyl)-3-fluoropropan-1-amine], for which the Papp (usually a coefficient for how fast a substance crosses the barrier) at 2 h in series [6] (Caco-2, 2 hours, pH 7.4) stood at 3.2 ×10⁻⁶ cm/s; in [9], 14 ×10⁻⁶ cm/s. Also, the efflux ratio (as a rule, the permeability from basolateral to apical divided by that in the opposite direction, in the common usage) at 2 h in series [6] (Papp(B-A)/Papp(A-B), Caco-2, pH 7.4) amounted to 1.8. In [7], the “CAMA1 Western % ER deg vs Fv” value was determined as 85%. Besides, the “Human plasma protein binding (% free)” value in series [1] came to 5.8 % free. In addition, in series [8], the “MCF7 Western % ER deg vs Fv” value was determined as 90%. The compound further yielded a hepatocyte CLint at 1 µM in [2] of 5 µL/min/1e6 cells. Further, the logD in series [3] is 2.7. This compound came in with a solubility at 24 h in series [4] of 854 µM (≈ 407 µg/mL). Besides, the half-maximal inhibitory concentration (IC50) (commonly the concentration that gives 50% inhibition) in series [5] was 0.17 nM.

These data come from patent US10149839B2, “Chemical compounds” (AstraZeneca AB, priority 2016, dated 2018).
